From patent US10266482B2, “Long-term memory inducing agent” (NATIONAL UNIVERSITY CORPORATION TOKYO MEDICAL AND DENTAL …, priority 2017, dated 2019)

Assays:
young crickets [1] = assay: Olfactory associative learning test in young crickets (single-time training, memory a day after); type: in vivo, Gryllus bimaculatus; details: drinking 10 μl of aqueous solution (5 μM) 5 minutes after single-time training
young mice = assay: Object recognition test for young mice (melatonin and melatonin metabolites); type: in vivo, ICR mice; details: i.p. 60 minutes after one one-minute acquisition trial, test trial 24 hours later
Procedure: Two-month-old male ICR mice (young mice) were used. The rearing room was kept at 22° C. at cycles of 12 hours of light period/12 hours of dark period, and feed and drinking water were given freely. All of the experiments were conducted during the latter 6 hours of the light period.
Melatonin (MEL), N(1)-acetyl-N(2)-formyl-5-methoxykynuramine (AFMK), and N(1)-acetyl-5-methoxykynuramine (AMK) were used as drugs. Melatonin was purchased from SIGMA Aldrich, AFMK was purchased from Cayman Chemical, and AMK was purchased from Toronto Research Chemicals. AFMK and AMK were diluted with physiological saline and intraperitoneally administered at a dosage of 0.01 mg/kg bw, 0.1 mg/kg bw or 1.0 mg/kg bw. MEL was diluted with physiological saline containing 1 vol % ethanol, and intraperitoneally administered at a dosage of 1.0 mg/kg bw or 5.0 mg/kg bw. As controls, physiological saline or physiological saline containing 1 vol % ethanol was intraperitoneally administered.
Test was conducted in the same manner as “5.3 Object recognition test” in Example 5.
Processing was conducted in the same manner as “5.4 Statistical processing” in Example 5.

aged crickets = assay: Olfactory associative learning test in aged crickets (age-related memory disorder, training four times); type: in vivo, Gryllus bimaculatus; details: 5 μM, 3 μl
Procedure: Male crickets about one week old (young) or three week old (aged) following molting into adult forms were used. Each of the crickets was placed into a 100 ml beaker three days before the experiment, and deprived of water for 2-3 days to enhance the desire of taking water. As the feed, about 10 pieces of insect feed were placed into the beaker. A 1-ml syringe was used for smell and reward associative conditioning upon learning/training. The syringe contained water as the reward while a piece of paper (3 mm×3 mm) perfumed with peppermint essence was pierced into the needle to about 1 cm from the tip thereof. In this learning/training, the filter paper on the needle was brought near the antennae of the cricket to allow it to smell for 3 seconds and then a drop of water was put out from the tip of the needle and applied to the mouth of the cricket. When the associative conditioning was conducted for four times, the conditionings were conducted at intervals of 5 minutes. Smell preference was examined by placing each cricket into a test arena. The arena consisted of a “standby chamber” and a “test chamber”. […] The smell source was a plastic pot containing filter paper perfumed with essence of a smell (peppermint or vanilla) and covered with a gauze lid. In the preference test, each cricket was placed into the test chamber and allowed to walk freely for 4 minutes to search for the two smell sources. Two minutes after the start of the test, a rotary board having the smell sources was rotated to reverse the positions of the vanilla and the peppermint smells. During the test, the time the cricket spent placing its mouth to the gauze of the smell source was measured as a visiting time to the smell source, and the ratio of the visiting times of the two types of smells (PI value: preference index) was calculated according to the following formula to assess the relative preference to the mint smell. PI value=Tp/(Tp+Tv)×100 • Tp: Searching time for smell associated with the reward (peppermint) • Tv: Searching time for smell not associated with the reward (vanilla) If the preferences for the two smells are equivalent, PI will be 50. Since crickets inherently prefer vanilla smell over peppermint smell, an average PI value prior to the learning/training is usually 25-35, The preference test was conducted before and after the learning/training to examine whether preference for the smell changes due to the learning/training. […] Melatonin, 6-HM, kynurenine, kynuramine and 8br-cGMP were purchased from SIGMA Aldrich, AFMK was purchased from Cayman Chemical, AMK was purchased from Toronto Research Chemicals and CHX was purchased from Wako Pure Chemical Industries. The drugs other than 8br-cGMP and CHX were first dissolved in ethanol and then diluted with physiological saline for crickets to the respective concentrations. In the administration experiment, 3 μl was administered using a 10-μl syringe to the brain via an aperture opened through a simple eye of the head. PI values were tested before the training and a day after the training in the same group by a Wilcoxon's-test.

young crickets [2] = assay: Olfactory associative learning test in young crickets (single-time training, memory a day after); type: in vivo, Gryllus bimaculatus
Procedure: Male crickets about one week old (young) or three week old (aged) following molting into adult forms were used. Each of the crickets was placed into a 100 ml beaker three days before the experiment, and deprived of water for 2-3 days to enhance the desire of taking water. As the feed, about 10 pieces of insect feed were placed into the beaker.
A 1-ml syringe was used for smell and reward associative conditioning upon learning/training. The syringe contained water as the reward while a piece of paper (3 mm×3 mm) perfumed with peppermint essence was pierced into the needle to about 1 cm from the tip thereof. In this learning/training, the filter paper on the needle was brought near the antennae of the cricket to allow it to smell for 3 seconds and then a drop of water was put out from the tip of the needle and applied to the mouth of the cricket. When the associative conditioning was conducted for four times, the conditionings were conducted at intervals of 5 minutes.
Smell preference was examined by placing each cricket into a test arena. The arena consisted of a “standby chamber” and a “test chamber”. The floor of the “test chamber” had two holes each with a diameter of 4 cm which were communicated with two smell sources. The smell source was a plastic pot containing filter paper perfumed with essence of a smell (peppermint or vanilla) and covered with a gauze lid. In the preference test, each cricket was placed into the test chamber and allowed to walk freely for 4 minutes to search for the two smell sources. Two minutes after the start of the test, a rotary board having the smell sources was rotated to reverse the positions of the vanilla and the peppermint smells. During the test, the time the cricket spent placing its mouth to the gauze of the smell source was measured as a visiting time to the smell source, and the ratio of the visiting times of the two types of smells (PI value: preference index) was calculated according to the following formula to assess the relative preference to the mint smell. PI value=Tp/(Tp+Tv)×100 • Tp: Searching time for smell associated with the reward (peppermint) • Tv: Searching time for smell not associated with the reward (vanilla)
If the preferences for the two smells are equivalent, PI will be 50. Since crickets inherently prefer vanilla smell over peppermint smell, an average PI value prior to the learning/training is usually 25-35, The preference test was conducted before and after the learning/training to examine whether preference for the smell changes due to the learning/training.
As drugs, melatonin, N(1)-acetyl-N(2)-formyl-5-methoxykynuramine (AFMK), N(1)-acetyl-5-methoxykynuramine (AMK), 6-Hydroxymelatonin (6-HM), L-kynurenine, kynuramine, 8-Bromoguanoine 3′,5′-cyclic monophosphate sodium salt (8 br-cGMP) and cycloheximide (CHX) were used. Melatonin, 6-HM, kynurenine, kynuramine and 8br-cGMP were purchased from SIGMA Aldrich, AFMK was purchased from Cayman Chemical, AMK was purchased from Toronto Research Chemicals and CHX was purchased from Wako Pure Chemical Industries. The drugs other than 8br-cGMP and CHX were first dissolved in ethanol and then diluted with physiological saline for crickets to the respective concentrations. In the administration experiment, 3 μl was administered using a 10-μl syringe to the brain via an aperture opened through a simple eye of the head.
PI values were tested before the training and a day after the training in the same group by a Wilcoxon's-test.

COc1ccc2[nH]cc(CCNC(C)=O)c2c1 [melatonin, reference compound]
long-term memory formation a day after the training by oral administration (young crickets [1]): long-term memory was formed | concentration at which the effect of inducing long-term memories was found (young mice): 5.0 mg/kg bw | improvement in an age-related memory disorder (aged crickets; 20 minutes after training for four times): improvement in an age-related memory disorder was observed | long-term memory formation a day after the training (improvement of age-related memory disorder) (aged crickets; 20 minutes before training for four times): a long-term memory was formed | long-term memory formation a day after the training (young crickets [2]; 0.2 μM, 3 μl to the brain, 20 minutes after single-time training): not | long-term memory formation a day after the training (young crickets [2]; 1 μM, 3 μl to the brain, 20 minutes after single-time training): not | PI value for mint a day after the training versus PI value before the training (young crickets [2]; 5 μM to the brain 20 minutes before single-time training): significantly higher | long-term memory formation a day after the training (young crickets [2]; 5 μM, 3 μl to the brain, 20 minutes after single-time training): long-term memories were formed | long-term memory formation a day after the training (young crickets [2]; 5 μM, 3 μl, administered between 20 minutes before and 20 minutes after single-time training): long-term memory was formed | long-term memory formation a day after the training (young crickets [2]; 25 μM, 3 μl to the brain, 20 minutes after single-time training): formed | administration concentration sufficient to form long-term memory (young crickets [2]; 3 μl to the brain 20 minutes after single-time training): 5 µM | amount in 1 g of the food per kg of body weight (young crickets [2]; based on the result from ingesting 5 μM for 10 μl): ≥ 11.6 µg | PI value for mint a day after the training versus PI value before the training (young crickets [2]; melatonin 5 μM simultaneously with cycloheximide (10 mM), to the brain 20 minutes before single-time training): no significant difference
